Our source for the IC50 values is patent US11453673B2, “Substituted [1,2,4]triazolo[4,3-a]pyrazines as phosphodiesterase inhibitors” (Eli Lilly and Company, priority 2018, dated 2022).

The structures appear in SMILES notation.

Holding throughout (type): biochemical
The target in one assay is human PDE6A/6B (Homo sapiens (Human), UniProt P16499+P35913). The assay is described as follows: PDE enzyme assay using [3H]cGMP as substrate (SPA). The following applies: [3H]cGMP 80 nM; read-out: PDE6AB IC50. From the text: (§1) The nucleotide sequences encoding full-length human PDE1A (NP_001003683.1) and PDE1C (NP_005011.1) are inserted into pFastBac1 (Invitrogen) vector with an N-terminal HIS tag. The nucleotide sequences encoding full-length human PDE4D (NP_006194.2) and catalytic domain (residue 641-1141) of PDE3A (NP_000912.3) are inserted into pFastBac1 (Invitrogen) vector with a C-terminal HIS tag. The nucleotide sequences encoding full-length human PDE6A (NP_000431.2) and PDE6B (AAH00249.1) are inserted into pFastBacDual (Invitrogen) vector with an N-terminal HIS tag and N-terminal Flag tag, respectively, for production of PDE6A/6B dimer. Baculovirus generation and protein expression in Sf9 cells are carried out according to the protocol of Bac-to-Bac Baculovirus Expression system (Invitrogen). The nucleotide sequence encoding full-length human PDE1B (NP_000915.1) is inserted into pIEX4 (Novagen) with a C-terminal HIS tag, and both protein productions in Sf9 cells are carried out according to the vendor's protocol (Novagen). The His tagged PDE proteins are purified using Ni-NTA agarose (Qiagen) followed by size exclusion chromatography on a SUPERDEX© 200 column (GE Healthcare) in storage buffer (20 mM Tris-HCl, pH 7.5, 150 mM NaCl, 10% Glycerol). The Flag tagged PDE proteins including PDE6A/6B are purified using anti-Flag M2-agarose (Sigma), after purification through NiNTA column chromatography and eluted in storage buffer (50 mM Tris-HCl, pH 7.5, 150 mM NaCl, 10% Glycerol, 0.1 mg/ml Flag peptide). All purified proteins are stored at −80° C. in small aliquots.
Sequence of human PDE6A/6B (P16499 whole entry, the tested form may be a part): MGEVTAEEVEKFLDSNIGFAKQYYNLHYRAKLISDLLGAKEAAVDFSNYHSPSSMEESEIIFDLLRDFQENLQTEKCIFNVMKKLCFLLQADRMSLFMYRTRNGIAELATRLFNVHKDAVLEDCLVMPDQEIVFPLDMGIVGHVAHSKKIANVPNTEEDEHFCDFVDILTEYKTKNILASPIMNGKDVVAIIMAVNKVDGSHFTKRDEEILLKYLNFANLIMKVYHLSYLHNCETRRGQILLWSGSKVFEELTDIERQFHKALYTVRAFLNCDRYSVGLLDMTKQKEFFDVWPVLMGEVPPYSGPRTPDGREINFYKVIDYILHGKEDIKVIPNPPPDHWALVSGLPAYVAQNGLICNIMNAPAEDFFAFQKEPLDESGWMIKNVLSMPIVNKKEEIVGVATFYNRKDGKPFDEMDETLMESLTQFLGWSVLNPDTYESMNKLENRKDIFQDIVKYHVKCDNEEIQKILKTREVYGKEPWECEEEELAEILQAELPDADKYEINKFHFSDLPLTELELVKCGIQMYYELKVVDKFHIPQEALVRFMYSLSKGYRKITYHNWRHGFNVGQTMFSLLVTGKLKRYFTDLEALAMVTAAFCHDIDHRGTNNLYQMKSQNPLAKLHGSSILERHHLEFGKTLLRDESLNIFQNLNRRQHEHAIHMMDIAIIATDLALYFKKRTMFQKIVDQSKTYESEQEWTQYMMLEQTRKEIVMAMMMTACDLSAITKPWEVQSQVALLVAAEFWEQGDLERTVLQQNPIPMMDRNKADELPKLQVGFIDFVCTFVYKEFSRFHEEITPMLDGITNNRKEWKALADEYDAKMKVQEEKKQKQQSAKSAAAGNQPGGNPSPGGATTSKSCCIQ
Sequence of human PDE6A/6B (P35913 whole entry, the tested form may be a part): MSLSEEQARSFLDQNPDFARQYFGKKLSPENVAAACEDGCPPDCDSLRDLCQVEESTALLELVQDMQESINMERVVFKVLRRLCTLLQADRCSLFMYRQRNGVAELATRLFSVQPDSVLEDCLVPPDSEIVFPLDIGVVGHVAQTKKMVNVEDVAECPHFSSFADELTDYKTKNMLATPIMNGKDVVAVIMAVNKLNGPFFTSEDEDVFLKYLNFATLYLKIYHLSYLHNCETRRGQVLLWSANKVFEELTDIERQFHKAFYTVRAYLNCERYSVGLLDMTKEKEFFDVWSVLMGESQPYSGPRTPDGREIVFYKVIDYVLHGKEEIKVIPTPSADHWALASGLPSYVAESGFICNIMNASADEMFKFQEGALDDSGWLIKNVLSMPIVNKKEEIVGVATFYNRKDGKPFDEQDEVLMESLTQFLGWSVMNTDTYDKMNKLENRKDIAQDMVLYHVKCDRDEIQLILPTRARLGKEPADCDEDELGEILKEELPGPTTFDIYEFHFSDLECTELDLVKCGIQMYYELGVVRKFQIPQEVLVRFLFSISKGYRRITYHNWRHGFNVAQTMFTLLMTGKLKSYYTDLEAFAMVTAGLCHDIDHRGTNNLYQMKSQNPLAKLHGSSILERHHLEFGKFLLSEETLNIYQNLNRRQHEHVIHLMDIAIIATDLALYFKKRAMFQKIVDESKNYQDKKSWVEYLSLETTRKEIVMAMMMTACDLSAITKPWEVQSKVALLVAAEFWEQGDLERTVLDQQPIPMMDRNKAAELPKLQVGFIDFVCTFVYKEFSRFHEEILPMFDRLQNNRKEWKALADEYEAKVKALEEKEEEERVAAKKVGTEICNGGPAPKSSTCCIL
(§2) All 3′, 5′ cyclic nucleotide PDE enzyme activities are measured with a radiometric enzyme assay based on SPA detection system. Compounds to be tested are diluted in pure DMSO using ten point concentration response curves. Maximal compound concentration in the reaction mixture is either 10 or 100 μM. Compounds at the appropriate concentration are pre-incubated with either of the PDE enzymes for 30 minutes before the reaction is started by the addition of substrate. Reactions are allowed to proceed for 60 minutes at room temperature. Next, reactions are stopped by addition of SPA beads. Samples are read 12 hours later in a MICROBETA™ TRILUX© Counter. IC50 values are calculated by plotting the normalized data vs. log [compound] and fitting the data using a four parameter logistic equation.
The following phosphodiesterase activities are measured using [3H]cGMP as reaction substrate: human PDE6A/6B. The catalytic active form of human PDE6 is a dimer composed of an a (human PDE6A) and […] (human PDE6B). The dimer of human PDE6A/6B is produced by the coexpression and purification strategy, using two purification steps, i.e., NiNTA and anti-FLAG Sepharose chromatography. The assay buffer is prepared to give a final concentration in the assay of 50 mM Tris-HCl, 8.3 mM MgCl2, 1.7 mM EDTA and 0.1% BSA at pH 7.5. The final enzyme concentration is 5 nM. The reactions are started by addition of the substrate, [3H]cGMP, to give a final concentration of 80 nM.

The target in another assay is human PDE4D (Homo sapiens (Human), UniProt Q08499). The experiment in a line: PDE enzyme assay using [3H]cAMP as substrate (SPA). The following applies: Mean ± standard deviation; [3H]cAMP 47 nM.
Sequence of human PDE4D (Q08499 other isoform, or with tags, fused parts or gaps): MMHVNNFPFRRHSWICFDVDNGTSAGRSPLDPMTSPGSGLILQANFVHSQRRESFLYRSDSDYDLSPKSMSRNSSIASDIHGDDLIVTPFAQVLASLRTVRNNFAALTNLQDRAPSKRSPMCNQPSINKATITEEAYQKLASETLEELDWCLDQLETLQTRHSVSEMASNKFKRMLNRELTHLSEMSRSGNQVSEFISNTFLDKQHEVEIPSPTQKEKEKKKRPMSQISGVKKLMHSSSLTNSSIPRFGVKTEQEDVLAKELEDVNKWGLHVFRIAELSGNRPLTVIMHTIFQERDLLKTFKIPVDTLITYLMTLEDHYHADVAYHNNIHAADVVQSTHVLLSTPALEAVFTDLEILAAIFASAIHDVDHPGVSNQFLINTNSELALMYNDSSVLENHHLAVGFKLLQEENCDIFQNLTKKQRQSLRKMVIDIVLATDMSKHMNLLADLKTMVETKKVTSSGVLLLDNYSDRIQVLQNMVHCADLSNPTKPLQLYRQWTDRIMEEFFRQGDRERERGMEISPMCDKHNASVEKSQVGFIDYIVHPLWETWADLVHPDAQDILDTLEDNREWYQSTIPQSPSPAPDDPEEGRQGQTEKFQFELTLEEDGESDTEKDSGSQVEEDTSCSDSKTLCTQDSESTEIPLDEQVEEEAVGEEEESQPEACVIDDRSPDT
Text: as §1, §2
(§3) The following PDE activities are measured using [3H]cAMP as reaction substrate: human PDE3A (catalytic domain) and human PDE4D. Both enzymes are cloned and purified following standard procedures. The assay buffer is prepared to give a final concentration in the assay of 50 mM Tris-HCl, 8.3 mM MgCl2, 1.7 mM EDTA and 0.1% BSA at pH 7.5. Final enzyme concentrations are 0.008 and 0.021 nM for PDE3A and PDE4D, respectively. Reactions are started by addition of the substrate, [3H]cAMP, to give a final concentration of 47 nM.

Assay [1] addresses human PDE3A (catalytic domain) (Homo sapiens (Human), UniProt Q14432). The experiment in a line: PDE enzyme assay using [3H]cAMP as substrate (SPA). The following applies: [3H]cAMP 47 nM.
Text: as §1, §2, §3

The target in another assay is human PDE1C (Homo sapiens (Human), UniProt Q14123). The experiment in a line: Ca2+-calmodulin dependent PDE enzyme assay (radiometric SPA, [3H]cAMP). The settings on record: Mean ± standard deviation; [3H]cAMP 47 nM; read-out: PDE 1C IC50.
Text: as §1, §2
(§4) PDE1B, PDE1A, and PDE1C are cloned and purified following standard protein generation procedures. […] The final enzyme concentration is 0.25, 0.074 and 0.0012 nM, for PDE1A, PDE1B and PDE1C respectively. The reactions are started by addition of the substrate, [^3H]cAMP, to give a final concentration of 47 nM.

The target in the next assay is human PDE1A (Homo sapiens (Human), UniProt P54750). The description is as above. The settings on record: Mean ± standard deviation; [3H]cAMP 47 nM; read-out: PDE 1A IC50.
Text: as §1, §2, §4

The next assay addresses human PDE1B (Homo sapiens (Human), UniProt Q01064). The assay is described as above. The settings on record: Mean ± standard deviation; [3H]cAMP 47 nM; read-out: PDE 1B IC50.
Text: as §1, §2, §4

Sequence of human PDE3A (catalytic domain) (Q14432 641-1141): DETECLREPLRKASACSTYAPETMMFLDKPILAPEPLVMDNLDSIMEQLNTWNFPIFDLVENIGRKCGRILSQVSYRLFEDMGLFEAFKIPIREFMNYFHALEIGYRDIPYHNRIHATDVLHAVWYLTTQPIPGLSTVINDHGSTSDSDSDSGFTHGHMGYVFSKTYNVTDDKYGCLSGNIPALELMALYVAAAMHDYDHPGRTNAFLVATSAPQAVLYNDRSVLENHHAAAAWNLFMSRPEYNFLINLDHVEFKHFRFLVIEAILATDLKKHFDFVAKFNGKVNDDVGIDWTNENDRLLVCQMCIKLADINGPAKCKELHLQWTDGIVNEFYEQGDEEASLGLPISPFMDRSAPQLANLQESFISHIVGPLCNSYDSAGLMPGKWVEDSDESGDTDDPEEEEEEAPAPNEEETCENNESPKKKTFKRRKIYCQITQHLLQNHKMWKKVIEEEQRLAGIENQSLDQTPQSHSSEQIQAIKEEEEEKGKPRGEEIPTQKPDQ

By IC50 is commonly meant the point on the concentration scale where inhibition reaches its midpoint. `Cn1cc(Cc2cn3c(C4(C5CC5)CC4)nnc3c(=O)n2CC2CC2)cn1` [Example 1, 3-(1-Cyclopropylcyclopropyl)-7-(cyclopropylmethyl)-6-[(1-methylpyrazol-4-yl)methyl]-[1,2,4]triazolo[4,3-a]pyrazin-8-one]: the IC50 was more than 10000 nM at human PDE6A/6B; 5590 nM at human PDE4D; more than 100000 nM in assay [1]; 12 ± 4 nM at human PDE1C; 20.3 ± 0.5 nM on human PDE1A; 29.4 ± 11.6 nM at human PDE1B.
